For ten molecules, IC50 results are on record in patent US20240190860A1, “8-CYCLO-SUBSTITUTED QUINAZOLINE DERIVATIVES AS LPA RECEPTOR 2 INHIBITORS” (CHIESI FARMACEUTICI S.p.A., priority 2021, published 2024).

The assay deals with T1, human recombinant LPA2 expressed in CHO cells (Homo sapiens, UniProt Q9HBW0).
T1 construct: expressed in transfected cells; host or cells: CHO cells (CHO-hLPA2 cell line)
Briefly: FLIPR calcium mobilization assay, LPA2 antagonism in CHO-hLPA2 cells. The format is cell-based. Conditions: CHO-hLPA2 cells, inhibition of LPA EC80 Ca2+ response, 30 min pre-incubation; read-out: LPA2 IC50. The protocol: The effectiveness of compounds of the present invention as LPA2 antagonist can be determined at the human recombinant LPA2 expressed in CHO cells, using a FLIPR assay in 384 well format.
CHO-hLPA2 cell lines are cultured in a humidified incubator at 5% C02 in DMEM/F-12 (1:1) MIXTURE with 2 mM Glutamax, supplemented with 10% of Foetal Bovine Serum, 1 mM Sodium Pyruvate, 11 mM Hepes and 1× Penicillin/Streptomycin. CHO hLPA2 cells are seeded into black walled clear-bottom 384-well plates (#781091, Greiner Bio-One GmbH) at a density of 7,500 cells per well in 50 μl culture media and grown overnight in a 37° C. humidified CO2-incubator. Serial dilutions (1:3 or 1:4, 11 points CRC) of compounds are performed in 100% DMSO at 200× the final concentration. The compounds are diluted 1:50 prior to the experiment with Assay Buffer (20 mM HEPES, 145 mM NaCl, 5 mM KCl, 5.5 mM glucose, 1 mM MgCl2 and 2 mM CaCl2, pH 7.4 containing 0.01% Pluronic F-127) to obtain a solution corresponding to […] the final concentration in the assay (4×, 2% DMSO). The final concentration of DMSO in the assay will be 0.5% in each well. Medium is removed by aspiration and cells are then incubated with 30 μl of a loading solution containing 5 μM of the cytoplasmic Ca2+ indicator Cal-520 AM in Assay Buffer containing 2.5 mM probenecid for 30 min at 37° C. incubator (cell loading). The loaded cell plates are transferred into the FLIPR instrument and calcium responses are monitored during the on-line addition protocols. For testing of compounds, after the cell loading, 10 μl/well of 4× antagonists' solution was added onto the cells. After 30 min pre-incubation (at 37° C.), 10 μl/well of 5× concentrated LPA EC80 was added and Ca2+ mobilization responses was followed during the on-line addition protocol. Intracellular peak fluorescence values subtracted by baseline fluorescence are exported and analysed to determine IC50 values, respectively. The calcium response is expressed as percentage of the maximal inhibition of the EC80 agonist response.
The raw data (peak height expressed as relative fluorescence units) are normalized and transformed into “percent of inhibition”. Curve fitting and pIC50 (−LogIC50) estimations are carried out using a four-parameter logistic model using XLfit Software.
In general terms: Calcium flux is commonly read through the fluorescence of an indicator in the cells.

SMILES strings stand for the structures.

T1 sequence (Q9HBW0 whole entry): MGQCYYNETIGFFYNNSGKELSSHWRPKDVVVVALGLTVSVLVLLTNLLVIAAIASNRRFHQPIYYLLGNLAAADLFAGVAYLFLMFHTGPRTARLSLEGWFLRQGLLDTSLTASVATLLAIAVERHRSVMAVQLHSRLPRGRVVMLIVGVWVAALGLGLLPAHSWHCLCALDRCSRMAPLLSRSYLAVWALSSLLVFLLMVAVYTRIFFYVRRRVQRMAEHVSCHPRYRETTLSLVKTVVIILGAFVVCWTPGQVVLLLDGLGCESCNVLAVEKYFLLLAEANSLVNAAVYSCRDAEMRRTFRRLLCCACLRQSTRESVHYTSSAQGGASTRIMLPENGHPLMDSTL

In the case of `COC(=O)Nc1nc(C)c(S(=O)(=O)N2CCN(C[C@H](C)Nc3ncnc4c(-c5sc(C)nc5C)cccc34)CC2)s1` [Example 1, methyl N-[5-({4-[(2S)-2-{[8-(2,4-dimethyl-1,3-thiazol-5-yl)quinazolin-4-yl]amino}propyl]piperazin-1-yl}sulfonyl)-4-methyl-1,3-thiazol-2-yl]carbamate], the concentration for half-maximal inhibition (IC50) is less than 10 nM.

On to `COC(=O)Nc1nc(C)c(S(=O)(=O)N2CCN(C[C@H](C)Nc3ncnc4c(-c5cnc(C)cn5)cccc34)CC2)s1` [Example 2, methyl N-[4-methyl-5-({4-[(2S)-2-{[8-(5-methylpyrazin-2-yl)quinazolin-4-yl]amino}propyl]piperazin-1-yl}sulfonyl)-1,3-thiazol-2-yl]carbamate], for which the 50% inhibitory concentration (IC50) fell in the range of 10 to 100 nM.

For `Cc1cc(-c2ccc(S(=O)(=O)N3CCN(C[C@H](C)Nc4ncnc5c(-c6c(C)noc6C)cccc45)CC3)s2)on1` [Example 3, 8-(3,5-dimethyl-1,2-oxazol-4-yl)-N-[(2S)-1-(4-{[5-(3-methyl-1,2-oxazol-5-yl)thiophen-2-yl]sulfonyl}piperazin-1-yl)propan-2-yl]quinazolin-4-amine], the half-inhibitory concentration (IC50) was less than 10 nM.

With `Cc1cc(-c2ccc(S(=O)(=O)N3CCN(C[C@H](C)Nc4ncnc5c(-c6ccccc6)cccc45)CC3)s2)on1` [Example 4, N-[(2S)-1-(4-{[5-(3-methyl-1,2-oxazol-5-yl)thiophen-2-yl]sulfonyl}piperazin-1-yl)propan-2-yl]-8-phenylquinazolin-4-amine], the concentration for half-maximal inhibition (IC50) was less than 10 nM.

As to `Cc1cc(-c2ccc(S(=O)(=O)N3CCN(C[C@H](C)Nc4ncnc5c(-c6c(C)nn(C)c6C)cccc45)CC3)s2)on1` [Example 5, N-[(2S)-1-(4-{[5-(3-methyl-1,2-oxazol-5-yl)thiophen-2-yl]sulfonyl}piperazin-1-yl)propan-2-yl]-8-(1,3,5-trimethyl-1H-pyrazol-4-yl)quinazolin-4-amine], the half-maximal inhibitory concentration (IC50) is less than 10 nM.

As for `Cc1cc(-c2ccc(S(=O)(=O)N3CCN(C[C@H](C)Nc4ncnc5c(-c6cccnc6)cccc45)CC3)s2)on1` [Example 6, N-[(2S)-1-(4-{[5-(3-methyl-1,2-oxazol-5-yl)thiophen-2-yl]sulfonyl}piperazin-1-yl)propan-2-yl]-8-(pyridin-3-yl)quinazolin-4-amine], the IC50 was less than 10 nM.

Consider `Cc1cc(-c2ccc(S(=O)(=O)N3CCN(C[C@H](C)Nc4ncnc5c(-c6sc(C)nc6C)cccc45)CC3)s2)on1` [Example 7, 8-(2,4-dimethyl-1,3-thiazol-5-yl)-N-[(2S)-1-(4-{[5-(3-methyl-1,2-oxazol-5-yl)thiophen-2-yl]sulfonyl}piperazin-1-yl)propan-2-yl]quinazolin-4-amine], for which the IC50 was less than 10 nM.

Consider `Cc1cc(-c2ccc(S(=O)(=O)N3CCN(C[C@H](C)Nc4ncnc5c(-c6ccncc6)cccc45)CC3)s2)on1` [Example 8, N-[(2S)-1-(4-{[5-(3-methyl-1,2-oxazol-5-yl)thiophen-2-yl]sulfonyl}piperazin-1-yl)propan-2-yl]-8-(pyridin-4-yl)quinazolin-4-amine], for which the IC50 is less than 10 nM.

As to `Cc1noc(-c2ccc(S(=O)(=O)N3CCN(C[C@H](C)Nc4ncnc5c(-c6c(C)noc6C)cccc45)CC3)s2)c1C` [Example 9, 8-(3,5-dimethyl-1,2-oxazol-4-yl)-N-[(2S)-1-(4-{[5-(3,4-dimethyl-1,2-oxazol-5-yl)thiophen-2-yl]sulfonyl}piperazin-1-yl)propan-2-yl]quinazolin-4-amine], the IC50 was less than 10 nM.

On to `COC(=O)Nc1nc(C)c(S(=O)(=O)N2CCN(C[C@H](C)Nc3ncnc4c(-c5c(C)noc5C)cccc34)CC2)s1` [Example 10, methyl N-[5-({4-[(2S)-2-{[8-(3,5-dimethyl-1,2-oxazol-4-yl)quinazolin-4-yl]amino}propyl]piperazin-1-yl}sulfonyl)-4-methyl-1,3-thiazol-2-yl]carbamate], for which the half-inhibitory concentration (IC50) is less than 10 nM.

In general, IC50 refers to the midpoint of a concentration-inhibition curve.
